This passage reports Km results from PMC9699638, “Study of Membrane-Immobilized Oxidoreductases in Wastewater Treatment for Micropollutants Removal” (International Journal of Molecular Sciences, 2022).

Assay [1] concerns T1, horseradish peroxidase (HRP).
T1 construct: gene PRXC1A
The note with it: free enzyme; 50 mM phosphate buffer pH 7; co-substrate H2O2 (10 mM); apparent.

A further assay concerns T2, laccase.
T2 construct: gene LCC2
The note with it: free enzyme; 50 mM acetate buffer pH 5; apparent.

Where a name gives a salt, the structure may show the parent alone.

What is called Km is the substrate concentration at which the rate is half of its maximum. Take `CCn1c(=NN=c2sc3cc(S(=O)(=O)O)ccc3n2CC)sc2cc(S(=O)(=O)O)ccc21` [2,2′-azino-bis(3-ehylbenzothiazoline-6-sulfonic acid), diammonium salt]: the Michaelis-Menten constant (Km) was determined as 1330 µM in assay [1] and 87 µM in the assay with laccase.
